# Source: US10349656B2, “Difluoromethyl-nicotinic-indanyl carboxamides” (BAYER CROPSCIENCE AKTIENGESELLSCHAFT, priority 2014, dated 2019)
# What was measured:
# [1] = Log P by HPLC on reversed phase columns (EEC directive 79/831 Annex V.A8), acidic range; type: physicochemical; conditions: for chromatographic logP: LC-UV, acidic range, 0.1% formic acid in water and acetonitrile (gradient 10% to 95% acetonitrile)
# Protocol: Measurement of Log P values was performed according to EEC directive 79/831 Annex V.A8 by HPLC (High Performance Liquid Chromatography) on reversed phase columns with the following method: ^[a] Log P value is determined by measurement of LC-UV, in an acidic range, with 0.1% formic acid in water and acetonitrile as eluent (linear gradient from 10% acetonitrile to 95% acetonitrile).
# Calibration was done with straight-chain alkan2-ones (with 3 to 16 carbon atoms) with known Log P values (measurement of Log P values using retention times with linear interpolation between successive alka-nones). Lambda-max-values were determined using UV-spectra from 200 nm to 400 nm and the peak values of the chromatographic signals.
# Calibration was done with straight-chain alkan2-ones (with 3 to 16 carbon atoms) with known Log P values (measurement of Log P values using retention times with linear interpolation between successive alkanones). Lambda-max-values were determined using UV-spectra from 200 nm to 400 nm and the peak values of the chromatographic signals.
# Botrytis cinerea = assay: In vivo preventive test on Botrytis cinerea (grey mould); conditions: gherkin plants
# Protocol: (§1) The active ingredients are made soluble and homogenized in a mixture of Dimethyl sulfoxide/Acetone//Tween® 80 and then diluted in water to the desired concentration.
# (§2) The young plants of gherkin are treated by spraying the active ingredient prepared as described above. Control plants are treated only with an aqueous solution of Acetone/Dimethyl sulfoxide/Tween® 80.
# After 24 hours, the plants are contaminated by spraying the leaves with an aqueous suspension of Botrytis cinerea spores. The contaminated gherkin plants are incubated for 4 to 5 days at 17° C. and at 90% relative humidity.
# The test is evaluated 4 to 5 days after the inoculation. 0% means an efficacy which corresponds to that of the control plants while an efficacy of 100% means that no disease is observed.
# Pyrenophora teres = assay: In vivo preventive test on Pyrenophora teres (net blotch on barley); conditions: barley plants; for Efficacy: comparison table
# Protocol: as §1
# The young plants of barley are treated by spraying the active ingredient prepared as described above. Control plants are treated only with an aqueous solution of Acetone/Dimethyl sulfoxide/Tween® 80.
# After 24 hours, the plants are contaminated by spraying the leaves with an aqueous suspension of Pyreoophora teres spores. The contaminated barley plants are incubated for 48 hours at 20° C. and at 100% relative humidity and then for 12 days at 20° C. and at 70-80% relative humidity.
# The test is evaluated 14 days after the inoculation. 0% means an efficacy which corresponds to that of the control plants while an efficacy of 100% means that no disease is observed.
# Septoria tritici = assay: In vivo preventive test on Septoria tritici (leaf spot on wheat), DMSO/acetone/Tween 80; conditions: wheat plants; for Efficacy: dose 10 ppm, comparison table; for protection (in words): dose of 10 ppm of active ingredient
# Protocol: as §1
# The young plants of wheat are treated by spraying the active ingredient prepared as described above. Control plants are treated only with an aqueous solution of Acetone/Dimethyl sulfoxide/Tween® 80.
# After 24 hours, the plants are contaminated by spraying the leaves with an aqueous suspension of Septoria tritici spores. The contaminated wheat plants are incubated for 72 hours at 18° C. and at 100% relative humidity and then for 21 days at 20° C. and at 90% relative humidity.
# The test is evaluated 24 days after the inoculation. 0% means an efficacy which corresponds to that of the control plants while an efficacy of 100% means that no disease is observed.
# Sphaerotheca fuliginea = assay: In vivo preventive test on Sphaerotheca fuliginea (powdery mildew on cucurbits); conditions: gherkin plants; for Efficacy: dose 10 ppm, comparison table; for protection (in words): dose of 10 ppm of active ingredient
# Protocol: as §1, §2
# After 24 hours, the plants are contaminated by spraying the leaves with an aqueous suspension of Sphaerotheca fuliginea spores. The contaminated gherkin plants are incubated for 72 hours at 18° C. and at 100% relative humidity and then for 12 days at 20° C. and at 70-80% relative humidity.
# The test is evaluated 15 days after the inoculation. 0% means an efficacy which corresponds to that of the control plants while an efficacy of 100% means that no disease is observed.
# [2] = dose of 100 ppm of active ingredient
# [3] = dose of 10 ppm of active ingredient
compound,measurement,setting,value
"CC(C)CC1CC(C)(C)c2cccc(NC(=O)c3cccnc3C(F)F)c21 (single isomer, unassigned) [Example 11]",Log P[a],[1],4.27^[a]
CCCC1CC(C)(C)c2cccc(NC(=O)c3ccc(Cl)nc3C(F)F)c21 (racemic) [Example 8],Log P[a],[1],4.65^[a]
CC(C)C1CC(C)(C)c2cccc(N)c21 (racemic) [Example III-01],Log P[a],[1],3.37^[a]
"CCC1CC(C)(C)c2cccc(NC(=O)c3cccnc3C(F)F)c21 (single isomer, unassigned) [Example 4]",Log P[a],[1],3.62^[a]
CCCC1CC(C)(C)c2cccc(NC(=O)c3c(F)ccnc3C(F)F)c21 (racemic) [Example 15],Log P[a],[1],4.21^[a]
CC(C)CC1CC(C)(C)c2cccc(N)c21 (racemic) [Example III-04],Log P[a],[1],4.18^[a]
"CCC1CC(C)(C)c2cccc(NC(=O)c3cccnc3C(F)F)c21 (stereo not drawn) [Example 2, 2-(difluoromethyl)-N-(3-ethyl-1,1-dimethyl-2,3-dihydro-1H-inden-4-yl)nicotinamide]",chromatographic logP,[1],3.62
same,Efficacy,"Botrytis cinerea; dose 100 ppm, comparison table",93%
same,protection (in words),Botrytis cinerea; [2],very good protection
same,Efficacy,Pyrenophora teres; dose 10 ppm,64%
same,Efficacy,Pyrenophora teres; dose 100 ppm,93%
same,protection (in words),Pyrenophora teres; [3],moderate protection
same,protection (in words),Pyrenophora teres; [2],very good protection
same,Efficacy,Septoria tritici,97%
same,protection (in words),Septoria tritici,very good protection
same,Efficacy,Sphaerotheca fuliginea,100%
same,protection (in words),Sphaerotheca fuliginea,total protection
CCC1CC(C)(C)c2cccc(NC(=O)c3c(F)ccnc3C(F)F)c21 (racemic) [Example 14],Log P[a],[1],3.87^[a]
CC(C)CC1CC(C)(C)c2cccc(NC(=O)c3cccnc3C(F)F)c21 (racemic) [Example 10],Log P[a],[1],4.27^[a]
CCCC1CC(C)(C)c2cccc(N)c21 (racemic) [Example III-03],Log P[a],[1],3.60^[a]
"CC(C)CC1CC(C)(C)c2cccc(NC(=O)c3cccnc3C(F)F)c21 (single isomer, unassigned) [Example 12]",Log P[a],[1],4.27^[a]
"CCCC1CC(C)(C)c2cccc(NC(=O)c3cccnc3C(F)F)c21 (single isomer, unassigned) [Example 6]",Log P[a],[1],3.96^[a]
CCCC1CC(C)(C)c2cccc(NC(=O)c3cccnc3C(F)F)c21 (racemic) [Example 5],Log P[a],[1],3.96^[a]
"CCC1CC(C)(C)c2cccc(N)c21 (stereo not drawn) [Example III-02, 3-ethyl-1,1-dimethylindan-4-amine]",chromatographic logP,[1],2.86
"CCC1CC(C)(C)c2cccc(NC(=O)c3cccnc3Cl)c21 (stereo not drawn) [2-chloro-N-(3-ethyl-1,1-dimethyl-2,3-dihydro-1H-inden-4-yl)nicotinamide, reference compound]",Efficacy,Pyrenophora teres; dose 10 ppm,0%
same,Efficacy,Pyrenophora teres; dose 100 ppm,71%
same,protection (in words),Pyrenophora teres; [3],no protection at all
same,protection (in words),Pyrenophora teres; [2],moderate protection
same,Efficacy,Septoria tritici,50%
same,protection (in words),Septoria tritici,moderate protection
same,Efficacy,Sphaerotheca fuliginea,44%
same,protection (in words),Sphaerotheca fuliginea,weak protection
"CCC1CC(C)(C)c2cccc(NC(=O)c3cccnc3C(F)F)c21 (single isomer, unassigned) [Example 3]",Log P[a],[1],3.62^[a]
"CCCC1CC(C)(C)c2cccc(NC(=O)c3cccnc3C(F)F)c21 (single isomer, unassigned) [Example 7]",Log P[a],[1],3.96^[a]
CC(C)CC1CC(C)(C)c2cccc(NC(=O)c3c(F)ccnc3C(F)F)c21 (racemic) [Example 13],Log P[a],[1],4.54^[a]
CC(C)C1CC(C)(C)c2cccc(NC(=O)c3cccnc3C(F)F)c21 (racemic) [Example 1],Log P[a],[1],3.87^[a]
